{"source": "patent US20130216666A1", "about": "“CASHEW NUT SHELL LIQUID WITH IMPROVED STABILITY” (IDEMITSU KOSAN CO., LTD., priority 2010, published 2013)", "details": "80° C.", "description": "The glycine was prepared as a 10% aqueous solution for the addition.\nSamples were taken from the beakers after 6 days and analyzed for composition by HPLC.", "key": {"[1]": {"details": "1% by weight in unheated CNSL, Day 0"}, "[2]": {"details": "1% by weight in unheated CNSL, Day 6"}, "[3]": {"details": "10% by weight in unheated CNSL, Day 0"}, "[4]": {"details": "10% by weight in unheated CNSL, Day 6"}}, "note": "Read-outs that look alike come from different tables or passages of the source."}
{"molecule": "NCC(=O)O", "note": "[Glycine, glycine]", "values": [{"measurement": "Anacardic Acid 15:1 Composition (%)", "setting": "[1]", "value": 40.00, "unit": "%"}, {"measurement": "Anacardic Acid 15:1 concentration", "setting": "[1]", "value": 346.59, "unit": "ppm"}, {"measurement": "Anacardic Acid 15:2 Composition (%)", "setting": "[1]", "value": 13.66, "unit": "%"}, {"measurement": "Anacardic Acid 15:2 concentration", "setting": "[1]", "value": 118.36, "unit": "ppm"}, {"measurement": "Anacardic Acid 15:3 Composition (%)", "setting": "[1]", "value": 32.88, "unit": "%"}, {"measurement": "Anacardic Acid 15:3 concentration", "setting": "[1]", "value": 284.89, "unit": "ppm"}, {"measurement": "Cardanol 15:1 Composition (%)", "setting": "[1]", "value": 5.65, "unit": "%"}, {"measurement": "Cardanol 15:1 concentration", "setting": "[1]", "value": 48.94, "unit": "ppm"}, {"measurement": "Cardanol 15:2 Composition (%)", "setting": "[1]", "value": 2.42, "unit": "%"}, {"measurement": "Cardanol 15:2 concentration", "setting": "[1]", "value": 20.93, "unit": "ppm"}, {"measurement": "Cardanol 15:3 Composition (%)", "setting": "[1]", "value": 5.40, "unit": "%"}, {"measurement": "Cardanol 15:3 concentration", "setting": "[1]", "value": 46.76, "unit": "ppm"}, {"measurement": "Anacardic Acid 15:1 Composition (%)", "setting": "[2]", "value": 23.47, "unit": "%"}, {"measurement": "Anacardic Acid 15:1 concentration", "setting": "[2]", "value": 78.82, "unit": "ppm"}, {"measurement": "Anacardic Acid 15:2 Composition (%)", "setting": "[2]", "value": 8.29, "unit": "%"}, {"measurement": "Anacardic Acid 15:2 concentration", "setting": "[2]", "value": 27.85, "unit": "ppm"}, {"measurement": "Anacardic Acid 15:3 Composition (%)", "setting": "[2]", "value": 18.80, "unit": "%"}, {"measurement": "Anacardic Acid 15:3 concentration", "setting": "[2]", "value": 63.14, "unit": "ppm"}, {"measurement": "Cardanol 15:1 Composition (%)", "setting": "[2]", "value": 21.95, "unit": "%"}, {"measurement": "Cardanol 15:1 concentration", "setting": "[2]", "value": 73.71, "unit": "ppm"}, {"measurement": "Cardanol 15:2 Composition (%)", "setting": "[2]", "value": 7.93, "unit": "%"}, {"measurement": "Cardanol 15:2 concentration", "setting": "[2]", "value": 26.64, "unit": "ppm"}, {"measurement": "Cardanol 15:3 Composition (%)", "setting": "[2]", "value": 19.54, "unit": "%"}, {"measurement": "Cardanol 15:3 concentration", "setting": "[2]", "value": 65.62, "unit": "ppm"}, {"measurement": "inhibition of the decarboxylation", "setting": "1 and 10% by weight, 6 days", "value": "subtle inhibition"}, {"measurement": "Anacardic Acid 15:1 Composition (%)", "setting": "[3]", "value": 40.00, "unit": "%"}, {"measurement": "Anacardic Acid 15:1 concentration", "setting": "[3]", "value": 346.59, "unit": "ppm"}, {"measurement": "Anacardic Acid 15:2 Composition (%)", "setting": "[3]", "value": 13.66, "unit": "%"}, {"measurement": "Anacardic Acid 15:2 concentration", "setting": "[3]", "value": 118.36, "unit": "ppm"}, {"measurement": "Anacardic Acid 15:3 Composition (%)", "setting": "[3]", "value": 32.88, "unit": "%"}, {"measurement": "Anacardic Acid 15:3 concentration", "setting": "[3]", "value": 284.89, "unit": "ppm"}, {"measurement": "Cardanol 15:1 Composition (%)", "setting": "[3]", "value": 5.65, "unit": "%"}, {"measurement": "Cardanol 15:1 concentration", "setting": "[3]", "value": 48.94, "unit": "ppm"}, {"measurement": "Cardanol 15:2 Composition (%)", "setting": "[3]", "value": 2.42, "unit": "%"}, {"measurement": "Cardanol 15:2 concentration", "setting": "[3]", "value": 20.93, "unit": "ppm"}, {"measurement": "Cardanol 15:3 Composition (%)", "setting": "[3]", "value": 5.40, "unit": "%"}, {"measurement": "Cardanol 15:3 concentration", "setting": "[3]", "value": 46.76, "unit": "ppm"}, {"measurement": "Anacardic Acid 15:1 Composition (%)", "setting": "[4]", "value": 28.28, "unit": "%"}, {"measurement": "Anacardic Acid 15:1 concentration", "setting": "[4]", "value": 94.58, "unit": "ppm"}, {"measurement": "Anacardic Acid 15:2 Composition (%)", "setting": "[4]", "value": 9.99, "unit": "%"}, {"measurement": "Anacardic Acid 15:2 concentration", "setting": "[4]", "value": 33.42, "unit": "ppm"}, {"measurement": "Anacardic Acid 15:3 Composition (%)", "setting": "[4]", "value": 22.66, "unit": "%"}, {"measurement": "Anacardic Acid 15:3 concentration", "setting": "[4]", "value": 75.77, "unit": "ppm"}, {"measurement": "Cardanol 15:1 Composition (%)", "setting": "[4]", "value": 17.35, "unit": "%"}, {"measurement": "Cardanol 15:1 concentration", "setting": "[4]", "value": 58.02, "unit": "ppm"}, {"measurement": "Cardanol 15:2 Composition (%)", "setting": "[4]", "value": 6.27, "unit": "%"}, {"measurement": "Cardanol 15:2 concentration", "setting": "[4]", "value": 20.97, "unit": "ppm"}, {"measurement": "Cardanol 15:3 Composition (%)", "setting": "[4]", "value": 15.45, "unit": "%"}, {"measurement": "Cardanol 15:3 concentration", "setting": "[4]", "value": 51.65, "unit": "ppm"}]}
